Laboratory results published in patent US20160115540A1, “PRODRUGS AND DRUGS” (Biogen MA Inc., priority 2013, published 2016).
Counter-ions that a name gives are not always drawn.

Tested on: brain
Experiment: Transcriptional profiling, multi-dosing regimen, naïve mice: brain
Type: in vivo
Conditions: for FC: BRAIN_HEMI, 100DMF-vs-Veh; for FC, Depp (1433836_PM_a_at): BrainHemi, multi-dosing; for Number of differentially expressed genes identified: Brain Hemi: Table 13: Naïve, Single Dose (so in the source), 12 h after last dosing
Method: In vivo, DMF is rapidly metabolized to monomethyl fumarate (MMF). […] Animals were exposed to CO2 and whole blood collected via cardiac puncture. Two 100 μl aliquots of whole blood were collected in 1.5 mL microcentrifuge tubes and snap frozen in liquid nitrogen. Peripheral (liver, spleen, kidney and jejunum) and CNS brain (cerebellum, hippocampus, striatum and cortex) tissues were harvested and snap frozen in liquid nitrogen, with special care taken to collect tissues of similar size and from the same location. All samples were stored at -80° C. until RNA extraction was conducted. For RNA preparation, frozen tissues were placed in 2 mL RNAse-free 96-well blocks with 1.5 mL QIAzol Lysis Reagent (QIAgen) and a 3.2 mm stainless steel bead (BioSpec Products, Bartlesville, Okla.). Tissues were disrupted for four cycles of 45 seconds in a Mini-Beadbeater (Biospec Products). RNA was extracted in chloroform and the aqueous phase was mixed with an equal volume of 70% ethanol. Extracted RNA was applied to RNeasy 96 plates and purified by the spin method according to the manufacturer's protocol (RNeasy 96 Universal Tissue Protocol, QIAgen, Hilden Germany). […] Two micrograms of biotin labeled […] probe were hybridized to Affymetrix GeneChip Affymetrix HT_MG-430_PM plate arrays with modified conditions as described in […] et al. Washing and staining of the hybridized arrays were completed as described in the GeneChip Expression analysis technical manual for HT plate arrays using the Genechip® Array Station (Affymetrix, Santa Clara, Calif.) with modifications as described in […] et al. The processed GeneChip® plate arrays were scanned using GeneTitan scanner (Affymetrix, Santa Clara, Calif.). Affymetrix scans were subject to quality control (QC) measures. These tests included a visual inspection of the distribution of raw signal intensities and an assessment of RNA degradation, relative log expression (RLE), and normalized unsealed standard error (NUSE). All sample scans that passed these QC metrics were included in the analysis. All CEL files were subjected to GC-content-based Robust Multi-array Average (GCRMA) normalization (version 2.20.0) (Irizarry R A, et al. Nucleic Acids Res 2003; 31:e15; Li C, et al. […] Stat Appl Genet Mol Biol 2004; 3:Article3). […] Springer Science+Business Media 2005). Changes in gene expression were studied by applying a linear modeling approach to fit gene expression levels according to the defined groups of samples (e.g. DMF-, MMF-, and Vehicle-treated animals) and Bayesian posterior error analysis as implemented by Smyth (Smyth G K. Stat Appl Genet Mol Biol 2004; 3:Article3). The comparisons considered included: DMF-vs-MMF, DMF-vs-Vehicle, and MMF-vs-Vehicle. […] Very few DEGs are observed in blood and tissues derived from the central nervous system (brain, cerebellum, cortex, striatum, and spinal cord).

COC(=O)/C=C/C(=O)OC [DMF, dimethyl fumarate]
FC (2310079F09Rik 1433201_PM_at): 2.00 | FC (8430408G22Rik 1433836_PM_a_at): 1.77 | FC, Depp (1433836_PM_a_at) (DMF-vs-MMF): 1.78 | FC, Depp (1433836_PM_a_at) (DMF-vs-Vehicle): 1.77 | FC (Pvrl3 1457257_PM_x_at): −1.69 | Number of differentially expressed genes identified: Brain Hemi (100 mpk DMF-vs-90 mpk MMF): 8 | Number of differentially expressed genes identified: Brain Hemi (100 mpk DMF-vs-Vehicle): 3 | DEPP gene induction (mRNA) (brain, multi-dosing regimen, naïve mice): robustly induced
